From publication PMC9951978, “Comparative Study of Different H2S Donors as Vasodilators and Attenuators of Superoxide-Induced Endothelial Damage” (Antioxidants, 2023)

What was measured:
[1] = Stability of the compounds in human serum (RP-HPLC); type: in vitro ADME; settings: 37 °C; for % Compd ± SE: 200 µM; for half-life at 200 µM: male, read-out: Half-life (t1/2)
Description: A solution of each compound (10 mM) in DMSO was added to human serum (obtained by filtration and sterilization from AB, Sigma-Aldrich (Merck KGaA, 64,271 Darmstadt, Germany) male human blood) and was preheated to 37 °C to obtain a final concentration of 200 µM. The resulting solution was incubated at 37.0 ± 0.5 °C, and aliquots of 300 µL were taken at appropriate time intervals and added to 300 µL of CH3CN acidified with 0.1% formic acid in order to deproteinize the serum. The mixture was centrifuged for 10 min at 2150× g, and the clear supernatant was filtered (PTFE filters, 0.45 µm, VWR (VWR International S.r.l., Milano, Italy)) and analyzed by RP-HPLC as described below. All experiments were performed at least in triplicate.
(§1) RP-HPLC analysis was performed with an HP 1100 chromatograph system (Agilent Technologies, Palo Alto, CA, USA) equipped with an injector (Rheodyne, Cotati, CA, USA), a quaternary pump (model G1311A), a membrane degasser (model G1379A), and a diode-array detector (DAD, model G1315B) integrated into the HP1100 system. The data were processed using an HP ChemStation system (Agilent Technologies, Palo Alto, CA, USA). A stationary phase Tracer Excel 120 ODSB (25 × 0.46, 5 μm; Tecnokroma (Teknokroma Analytical S.A., Barcelona, Spain)) was used. The mobile phase consisted of acetonitrile 0.1% HCOOH/water 0.1% HCOOH at a flow rate of 1.0 mL/min, with gradient elution: 35% acetonitrile up to 5 min, 35 to 80% acetonitrile between 5 and 10 min, 80% acetonitrile between 10 and 20 min. The injection volume was 20 μL. The column effluent was monitored for each compound at the wavelength of maximum absorption (referenced against a 700 nm wavelength). Using this RP-HPLC procedure, we separated the compounds from any degradation products and we quantified the compounds during incubation time. The quantification was performed using a calibration curve obtained with standard solutions of compounds chromatographed under the same experimental conditions, in a concentration range of 1–100 μM (r^2 > 0.99).

[2] = Stability at pH 7.4 in phosphate buffer (PBS); type: physicochemical; settings: PBS pH 7.4, 37 °C
Description: (§2) The compounds were solubilized at a concentration of 100 µM (starting from a 10 mM stock solution in DMSO) in 0.1 M PBS, pH = 7.4, in the absence or presence of 5 mM L-cysteine (50×). The solutions were incubated at 37.0 ± 0.5 °C, and at appropriate time intervals, aliquots were analyzed by RP-HPLC as described below. All experiments were performed at least in triplicate.
as §1

[3] = Stability at pH 7.4 in PBS in the presence of L-cysteine (50x); type: physicochemical; settings: pH 7.4, 37 °C; for half-life at 100 µM: phosphate buffer (PBS) with L-cysteine, read-out: t1/2, buffer + cysteine (50×) (converted)
Description: as §2, §1

[4] = system: rat aorta strips; assay: Vasodilating activity on endothelium-denuded rat aorta strips precontracted with KCl; type: cell-based; settings: for EC50: endothelium-denuded rat aorta strips precontracted with 25 mM KCl, read-out: Vasodilating activity EC50 ± SEM; for Effect of glibenclamide on the concentration-response curve / EC50: presence vs absence of K+ATP channel blocker glibenclamide; for activation at 300 µM / activation at 10 µM / activation at 100 µM: rat aorta strips precontracted with KCl, read-out: % Vasodilation at the maximum concentration testable
Description: Vasodilating activity was studied on the thoracic aortas from male Wistar rats (180–200 g), following a protocol published elsewhere. All synthesized compounds were dissolved in DMSO. The addition of the vehicle had no perceptible consequence on contraction level. Results were expressed as EC50 ± SE (μM), n = 3–8.
The vasodilator action of H2S-releasing compounds was evaluated on endothelium-denuded rat aorta strips precontracted with KCl. The results reported in Table 1 show the heterogeneous behavior of the tested compounds.

[5] = system: endothelium-intact rat aortic rings; assay: Vasoprotection: acetylcholine-induced relaxation in rat aortic rings with endothelium impairment induced by pyrogallol; type: cell-based
Description: The experiments were performed on rat thoracic aortic rings from male Wistar rats (180–200 g), prepared as previously described. The effect of H2S donor or catechin, taken as a reference, on acetylcholine-induced relaxation in aortic rings pre-incubated with pyrogallol was studied as published elsewhere, with some modifications. Aortic rings were incubated with diethyldithiocarbamate (DETCA) 10 mM for 1 h to irreversibly inactivate endogenous superoxide dismutase (SOD). Then, the aortic rings were washed and randomly divided into four groups: (1) control: endothelium-intact rings incubated in Krebs’ solution with vehicle only (DMSO); (2) H2S donor: endothelium-intact rings incubated with H2S donor (100 μM) or reference catechin (10 mM) for 30 min; (3) pyrogallol: endothelium-intact rings incubated with 500 μM pyrogallol for 15 min; (4) H2S donor plus pyrogallol: endothelium-intact rings incubated with H2S donor (100 μM) or reference catechin (10 mM) for 30 min and 500 μM pyrogallol for the last 15 min. After the incubation time, the rings were washed, 1 μM phenylephrine was added to the organ baths, then acetylcholine (10^−9–l0^−5 M) was added cumulatively. Tension was measured and calculated as the percentage of contraction in response to phenylephrine (1 μM). Data were expressed as mean ± SEM, n = 3–9.
Figure 3 Effect of 6 (100 μM) on acetylcholine-induced vasodilation in endothelium-intact rat aortic rings. […] Statistical analyses were made using Student’s t-test for unpaired data. ** p < 0.01 vs. the pyrogallol group.

| % Compd ± SE ([1]; 1 h) [%] | % Compd ± SE ([1]; 4 h) [%] | % Compd ± SE ([1]; 24 h) [%] | Stability (% compound ± SE), buffer ([2]; 24 h) [%] | Stability (% compound ± SE), buffer + cysteine (50×) ([3]; 1 h) [%] | Stability (% compound ± SE), buffer + cysteine (50×) ([3]; 24 h) [%] | half-life at 200 µM [1] [min] | Structure (SMILES) | further results |
| --- | --- | --- | --- | --- | --- | --- | --- | --- |
| 88 ± 1 | 35 ± 1 | 8.0 ± 0.5 | 91.5 ± 1.0 | 87.3 ± 1.0 | 69.5 ± 1.0 |  | C=CCSCC(NC(C)=O)C(=O)O (stereo not shown) [Compound 1] | Stability (% compound ± SE), buffer + cysteine (50×) ([3]; 6 h): 72.5 ± 1.0% |
| 80.0 ± 1.0 | 62 ± 2 | 44 ± 1 | 101.0 ± 1.0 |  |  |  | C=CCSSCCC(=O)O [Compound 3] | half-life at 100 µM [3]: ~10 min |
|  |  |  |  |  |  | < 30 | C=CCSSCCC(=O)OCC [Compound 4] | % Vasodilation at the maximum concentration testable, + Glib. 10 μM ([4]; 100 μM, in the presence of glibenclamide 10 μM): [44 ± 3] ^2%; EC50 [4]: 64 ± 6 µM; Effect of glibenclamide on the concentration-response curve / EC50 [4]: significantly rightward shifted |
| 64 ± 1 | 39 ± 1 | 16 ± 1 | 87.7 ± 1.0 |  |  |  | C=CCSSCC(NC(C)=O)C(=O)O (stereo not shown) [Compound 5] | activation at 300 µM [4]: 16%; half-life at 100 µM [3]: ~5 min |
| 19.8 ± 0.7 | 0 | 0 | 57.1 ± 3.3 |  |  |  | O=C(O)CCC(=O)NSC(=O)c1ccccc1 [Compound 7] | activation at 300 µM [4]: 12%; Stability (% compound ± SE), buffer ([2]; 6 h): 91.6 ± 1.1%; half-life at 100 µM [3]: ~78 min |
|  |  |  |  |  |  | < 30 | CC(=O)NSC(=O)c1ccccc1 [Compound 8] | Effect of glibenclamide on the concentration-response curve / EC50 [4]: almost the same; Ach-induced maximum relaxation ([5]; H2S donor 100 μM without exposure to pyrogallol): did not reduce Ach-induced maximum relaxation; Ach-induced maximal relaxation ([5]; rings incubated with H2S donor 100 μM 30 min and 500 μM pyrogallol last 15 min): not able to reduce pyrogallol-induced endothelium impairment |
| 94.2 ± 0.2 | 90.0 ± 0.8 | 83 ± 1 | 92.6 ± 0.8 | 98.6 ± 0.3 | 78.1 ± 0.3 |  | O=C(O)c1ccc(-c2ssc(=S)c2-c2ccccc2)cc1 [Compound 9] | EC50 [4]: 78 ± 7 µM; Effect of glibenclamide on the concentration-response curve / EC50 [4]: significantly rightward shifted; Stability (% compound ± SE), buffer + cysteine (50×) ([3]; 6 h): 94.9 ± 0.7% |
|  |  |  |  |  |  | 144 | COC(=O)c1ccc(-c2ssc(=S)c2-c2ccccc2)cc1 [Compound 10] | activation at 10 µM [4]: 29% |
| 96.3 ± 0.2 | 90.0 ± 0.9 | 53 ± 2 | 94.8 ± 3.2 | 99.0 ± 0.3 | 37.6 ± 0.1 |  | O=C(O)c1ccc(-c2cssc2=S)cc1 [Compound 11] | activation at 100 µM ([4]; 100 μM): 42%; Stability (% compound ± SE), buffer + cysteine (50×) ([3]; 6 h): 82.6 ± 0.2% |
|  |  |  |  |  |  | 162 | CCOC(=O)c1ccc(-c2cssc2=S)cc1 [Compound 12] | Effect of glibenclamide on the concentration-response curve / EC50 [4]: almost the same |
| 99.2 ± 0.1 | 96.0 ± 0.8 | 94.3 ± 2 | 101.8 ± 1.4 | 99.0 ± 0.4 | 81.9 ± 0.1 |  | O=C(O)COc1ccc(-c2cc(=S)ss2)cc1 [Compound 13] | activation at 100 µM ([4]; 100 μM): 39%; Stability (% compound ± SE), buffer + cysteine (50×) ([3]; 6 h): 96.6 ± 0.1% |
|  |  |  |  |  |  | 30 | CCOC(=O)COc1ccc(-c2cc(=S)ss2)cc1 [Compound 14] | activation at 10 µM [4]: 37% |
| 99.2 ± 0.1 | 95 ± 1 | 94.8 ± 2 | 100.0 ± 1.0 | 100.0 ± 0.2 | 96.6 ± 1.0 |  | O=C(O)c1csc(=S)s1 [Compound 15] | activation at 300 µM [4]: 17% |
|  |  |  |  |  |  | 90 | COC(=O)c1csc(=S)s1 [Compound 16] | activation at 100 µM ([4]; 100 μM): 25% |
| 91.6 ± 0.3 | 85.0 ± 0.1 | 64.7 ± 0.2 | 82.3 ± 0.4 | 97.6 ± 0.2 | 25.0 ± 0.6 |  | NC(=S)c1ccc(C(=O)O)cc1 [Compound 17] | activation at 300 µM [4]: 27%; Stability (% compound ± SE), buffer + cysteine (50×) ([3]; 6 h): 84.1 ± 0.2% |
|  |  |  |  |  |  |  | O.Oc1cc(O)c2c(c1)O[C@H](c1ccc(O)c(O)c1)[C@@H](O)C2 [catechin, reference compound] | Ach-induced maximal relaxation ([5]; rings incubated with catechin 10 mM and 500 μM pyrogallol): 77 ± 3% |
|  |  |  |  |  |  |  | Oc1cccc(O)c1O [pyrogallol, reference compound] | Maximum Ach-induced relaxation ([5]; rings incubated with 500 μM pyrogallol alone for 15 min (control 80 ± 3%)): 15 ± 3% |

| Structure (SMILES) | % Compd ± SE ([1]; 1 h) [%] | % Compd ± SE ([1]; 4 h) [%] | % Compd ± SE ([1]; 24 h) [%] | Stability (% compound ± SE), buffer ([2]; 24 h) [%] | Stability (% compound ± SE), buffer + cysteine (50×) ([3]; 1 h) [%] | Stability (% compound ± SE), buffer + cysteine (50×) ([3]; 24 h) [%] | half-life at 200 µM [1] [min] | further results |
| --- | --- | --- | --- | --- | --- | --- | --- | --- |
| COC(=O)c1ccc(C(N)=S)cc1 [Compound 18] |  |  |  |  |  |  | 222 | activation at 10 µM [4]: 33% |
